Results as given in patent publication US8871760B2, “[1,2,4]triazolo[3,4-C][1,4]oxazines as P2X7 modulators” (Roche Palo Alto LLC, priority 2009, dated 2014).

Target: T1, human P2X7 (UniProt Q99572)
T1 sequence (Q99572 1-595): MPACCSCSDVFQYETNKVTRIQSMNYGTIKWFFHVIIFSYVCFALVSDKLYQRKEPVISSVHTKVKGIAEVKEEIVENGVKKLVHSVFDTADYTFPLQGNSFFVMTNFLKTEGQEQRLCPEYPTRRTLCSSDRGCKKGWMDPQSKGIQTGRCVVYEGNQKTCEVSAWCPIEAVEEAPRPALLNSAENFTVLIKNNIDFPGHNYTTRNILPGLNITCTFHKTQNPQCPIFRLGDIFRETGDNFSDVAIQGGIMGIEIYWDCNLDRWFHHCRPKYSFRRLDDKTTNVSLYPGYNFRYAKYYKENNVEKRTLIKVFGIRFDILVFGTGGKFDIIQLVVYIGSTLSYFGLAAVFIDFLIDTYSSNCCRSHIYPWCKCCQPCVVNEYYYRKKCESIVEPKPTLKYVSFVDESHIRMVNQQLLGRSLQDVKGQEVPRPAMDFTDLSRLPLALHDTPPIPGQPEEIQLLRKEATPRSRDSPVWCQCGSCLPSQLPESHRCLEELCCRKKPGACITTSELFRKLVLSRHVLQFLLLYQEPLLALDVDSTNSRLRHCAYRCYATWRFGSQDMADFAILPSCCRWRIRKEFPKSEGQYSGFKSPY
Experiment: Intracellular Calcium Flux (FLIPR) Assay
Format: cell-based
Protocol: Intracellular Calcium Flux (FLIPR) Assay
Compound and Reagent Preparation
Stock solutions of compounds were prepared from powders as a 10 mM DMSO stock solution. These solutions were stored at RT during the two week period of these experiments to prevent freeze-thaw of the DMSO stocks. The DMSO stocks were added to the appropriate assay buffer at a concentration of 10 μM, and then diluted serially to the final concentrations that were tested. No observable precipitate was formed at any time during this process. The aqueous solutions of compounds as well as ATP (Sigma A7699) and BzATP (Sigma B6396) were prepared fresh for each day of experiment.
1321N1 cells stably expressing the full length human P2X7 gene (1321N1-hP2X7) and HEK293 cells stably expressing the full length rat P2X7 gene (HEK293-rP2X7) were obtained from the Roche Cell Culture Facility. 1321N1-hP2X7 cells were grown in Dulbecco's Modified Eagle's Medium (DMEM) high glucose supplemented with 10% FBS and […] G418. HEK293-rP2X7 cells were grown in DMEM/F-12 supplemented with 10% FBS, 1 mM CaCl2, 2 mM MgCl2, 2 mM L-Glutamine and […] G418. Cells were split such that they never became >70% confluent.
Intracellular Calcium Flux (FLIPR)
On the day prior to the experiment, 1321N1-hP2X7 or HEK293-rP2X7 cells were released into suspension with calcium-free PBS+Versene and washed by centrifugation with calcium-free PBS to remove the Versene. Cells were resuspended in growth medium at a density of 2.5×10^5 cells/mL and seeded into black walled, clear bottom 96 well plates (50,000 cells/well) approximately 18 hr prior to intracellular calcium flux experiments.
On the day of the experiment, plates were washed with FLIPR buffer (calcium- and magnesium-free Hank's Balanced Salt Solution (HBSS) supplemented with 10 mM Hepes, 2.5 mM probenecid and 2 mM calcium chloride) using a BIO-TEK 96 channel plate washer and incubated with […] fluo-3 dye at 37° C. for one hr. The dye was then removed by plate washing and the cells were allowed to equilibrate for 20 min at room temperature with antagonist or vehicle (FLIPR buffer). Agonist (100 μM BzATP final concentration for hP2X7; 5 μM BzATP final concentration or rP2X7) was added online with the FLIPR and fluorescence measurements made at 1 sec intervals for 60 sec followed by 3 sec intervals for a further 4 min (5 min total). A final addition of 5 μM ionomycin was made and the maximal BzATP-evoked fluorescence normalized to the maximal ionomycin-evoked fluorescence.

Row | pIC50 | Compound
1 | 7.25 | COc1cc(Br)c(Nc2nnc3n2C(c2ccccc2)CCC3)cc1OC (stereo not shown) [Compound 1, (2-Bromo-4,5-dimethoxy-phenyl)-(5-phenyl-5,6,7,8-tetrahydro-[1,2,4]triazolo[4,3-a]pyridin-3-yl)-amine]
2 | 7.52 | CCc1c(Nc2nnc3n2C(c2ccc(F)cc2)CCC3)ccc2ncccc12 (stereo not shown) [Compound 2, (5-Ethyl-quinolin-6-yl)-[5-(4-fluoro-phenyl)-5,6,7,8-tetrahydro-[1,2,4]triazolo[4,3-a]pyridin-3-yl]-amine]
3 | 7.98 | COc1cc(C)c(Nc2nnc3n2[C@H](c2ccc(F)cc2)CCC3)cc1OC [Compound 4, (4,5-Dimethoxy-2-methyl-phenyl)-[(S)-5-(4-fluoro-phenyl)-5,6,7,8-tetrahydro-[1,2,4]triazolo[4,3-a]pyridin-3-yl]-amine]
4 | 7.775 | COc1cc(Br)c(Nc2nnc3n2C(c2ccc(F)cc2)COC3)cc1OC (stereo not shown) [Compound 5, (2-Bromo-4,5-dimethoxy-phenyl)-[5-(4-fluoro-phenyl)-5,6-dihydro-8H-[1,2,4]triazolo[3,4-c][1,4]oxazin-3-yl]-amine]
5 | 6.99 | Cc1cc(Cl)c(OCCO)cc1Nc1nnc2n1C(c1ccc(F)cc1)CCC2 (stereo not shown) [Compound 6, 2-{2-Chloro-5-[5-(4-fluoro-phenyl)-5,6,7,8-tetrahydro-[1,2,4]triazolo[4,3-a]pyridin-3-ylamino]-4-methyl-phenoxy}-ethanol]
6 | 6.2 | COc1cc(Br)c(Nc2nnc3n2C(c2ccccc2)CC2(C3)OCCO2)cc1OC (stereo not shown) [Compound 7, (2-Bromo-4,5-dimethoxy-phenyl)-(7,7′-spiro-ethylenedioxy-5-phenyl-5,6,7,8-tetrahydro-[1,2,4]triazolo[4,3-a]pyridin-3-yl)-amine]
7 | 7.693 | CCc1c(Nc2nnc3n2[C@H](c2ccc(F)cc2)CCC3)ccc2ncccc12 [Compound 8, (5-Ethyl-quinolin-6-yl)-[(S)-5-(4-fluoro-phenyl)-5,6,7,8-tetrahydro-[1,2,4]triazolo[4,3-a]pyridin-3-yl]-amine]
8 | 5.17 | CCc1c(Nc2nnc3n2[C@@H](c2ccc(F)cc2)CCC3)ccc2ncccc12 [Compound 9, (5-Ethyl-quinolin-6-yl)-[(R)-5-(4-fluoro-phenyl)-5,6,7,8-tetrahydro-[1,2,4]triazolo[4,3-a]pyridin-3-yl]-amine]
9 | 7.625 | COc1cc(Br)c(Nc2nnc3n2C(c2ccc(F)cc2)CSC3)cc1OC (stereo not shown) [Compound 10, (2-Bromo-4,5-dimethoxy-phenyl)-[5-(4-fluoro-phenyl)-5,6-dihydro-8H-[1,2,4]triazolo[3,4-c][1,4]thiazin-3-yl]-amine]
10 | 7.442 | Cc1ccc2ncccc2c1Nc1nnc2n1[C@H](c1ccccc1)COC2 [Compound 11, (6-Methyl-quinolin-5-yl)-((R)-5-phenyl-5,6-dihydro-8H-[1,2,4]triazolo[3,4-c][1,4]oxazin-3-yl)-amine]
11 | 5.1167 | COc1cc(Br)c(Nc2nnc3n2[C@@H](c2ccc(F)cc2)COC3)cc1OC [Compound 12, (2-Bromo-4,5-dimethoxy-phenyl)-[(S)-5-(4-fluoro-phenyl)-5,6-dihydro-8H-[1,2,4]triazolo[3,4-c][1,4]oxazin-3-yl]-amine]
12 | 7.75 | COc1cc(Br)c(Nc2nnc3n2[C@H](c2ccc(F)cc2)COC3)cc1OC [Compound 13, (2-Bromo-4,5-dimethoxy-phenyl)-[(R)-5-(4-fluoro-phenyl)-5,6-dihydro-8H-[1,2,4]triazolo[3,4-c][1,4]oxazin-3-yl]-amine]
13 | 7.62 | Cc1cc(-c2ccc(C)c(Nc3nnc4n3[C@H](c3ccc(F)cc3)COC4)c2)n[nH]1 [Compound 14, [(R)-5-(4-Fluoro-phenyl)-5,6-dihydro-8H-[1,2,4]triazolo[3,4-c][1,4]oxazin-3-yl]-[2-methyl-5-(5-methyl-1H-pyrazol-3-yl)-phenyl]-amine]
14 | 7.133 | Cc1cc(Cl)c(OCCO)cc1Nc1nnc2n1[C@H](c1ccc(F)cc1)CCC2 [Compound 15, 2-{2-Chloro-5-[(S)-5-(4-fluoro-phenyl)-5,6,7,8-tetrahydro-[1,2,4]triazolo[4,3-a]pyridin-3-ylamino]-4-methyl-phenoxy}-ethanol]
15 | 7.4167 | COc1cc(Br)c(Nc2nnc3n2C(c2ccc(F)cc2)C[S+]([O-])C3)cc1OC (stereo not shown) [Compound 16, (2-Bromo-4,5-dimethoxy-phenyl)-[5-(4-fluoro-phenyl)-7-oxo-5,6,7,8-tetrahydro-7λ^4-[1,2,4]triazolo[3,4-c][1,4]thiazin-3-yl]-amine]
16 | 7.3267 | COc1cc(Br)c(Nc2nnc3n2C(c2ccc(F)cc2)CNC3)cc1OC (stereo not shown) [Compound 17, (2-Bromo-4,5-dimethoxy-phenyl)-[5-(4-fluoro-phenyl)-5,6,7,8-tetrahydro-[1,2,4]triazolo[4,3-a]pyrazin-3-yl]-amine]
17 | 6.987 | Fc1cccc(C2COCc3nnc(Nc4cccc5ncccc45)n32)c1 (stereo not shown) [Compound 20, [5-(3-Fluoro-phenyl)-5,6-dihydro-8H-[1,2,4]triazolo[3,4-c][1,4]oxazin-3-yl]-quinolin-5-yl-amine]
18 | 7.855 | Cc1cnn(-c2ccc(C)c(Nc3nnc4n3[C@H](c3ccc(F)cc3)COC4)c2)c1 [Compound 22, [(R)-5-(4-Fluoro-phenyl)-5,6-dihydro-8H-[1,2,4]triazolo[3,4-c][1,4]oxazin-3-yl]-[2-methyl-5-(4-methyl-pyrazol-1-yl)-phenyl]-amine]
19 | 6.9 | COc1cc(C)c(Nc2nnc3n2C(C)(c2ccc(F)cc2)COC3)cc1OC (stereo not shown) [Compound 23, (4,5-Dimethoxy-2-methyl-phenyl)-[5-(4-fluoro-phenyl)-5-methyl-5,6-dihydro-8H-[1,2,4]triazolo[3,4-c][1,4]oxazin-3-yl]-amine]
20 | 6.945 | COc1cc(Br)c(Nc2nnc3n2C(c2ccc(F)cc2)CN(C(C)=O)C3)cc1OC (stereo not shown) [Compound 24, 1-[3-(2-Bromo-4,5-dimethoxy-phenylamino)-5-(4-fluoro-phenyl)-5,6-dihydro-8H-[1,2,4]triazolo[4,3-a]pyrazin-7-yl]-ethanone]
21 | 7.735 | Cc1ccc2ncccc2c1Nc1nnc2n1C(c1cccc(F)c1)COC2 (stereo not shown) [Compound 25, [5-(3-Fluoro-phenyl)-5,6-dihydro-8H-[1,2,4]triazolo[3,4-c][1,4]oxazin-3-yl]-(6-methyl-quinolin-5-yl)-amine]
22 | 7.32 | COc1cc(Br)c(Nc2nnc3n2C(c2ccc(F)cc2)CN(C)C3)cc1OC (stereo not shown) [Compound 26, (2-Bromo-4,5-dimethoxy-phenyl)-[5-(4-fluoro-phenyl)-7-methyl-5,6,7,8-tetrahydro-[1,2,4]triazolo[4,3-a]pyrazin-3-yl]-amine]
23 | 6.76 | Cc1ccc2c(Nc3nnc4n3[C@H](c3ccc(F)cc3)COC4)cccc2n1 [Compound 27, [(R)-5-(4-Fluoro-phenyl)-5,6-dihydro-8H-[1,2,4]triazolo[3,4-c][1,4]oxazin-3-yl]-(2-methyl-quinolin-5-yl)-amine]
24 | 5.625 | C[C@H](CO)N1Cc2c(Nc3nnc4n3C(c3cccc(F)c3)COC4)ccc(Cl)c2C1=O (stereo partly drawn) [Compound 28, 7-Chloro-4-[5-(3-fluoro-phenyl)-5,6-dihydro-8H-[1,2,4]triazolo[3,4-c][1,4]oxazin-3-ylamino]-2-((R)-2-hydroxy-1-methyl-ethyl)-2,3-dihydro-isoindol-1-one]
25 | 7.13 | Cc1cc(Cl)c(OCCO)cc1Nc1nnc2n1C(c1cccc(F)c1)COC2 (stereo not shown) [Compound 29, 2-{2-Chloro-5-[5-(3-fluoro-phenyl)-5,6-dihydro-8H-[1,2,4]triazolo[3,4-c][1,4]oxazin-3-ylamino]-4-methyl-phenoxy}-ethanol]
